Earlier results on one substance are cited in paper PMC3241508 (Bioconjugate chemistry, 2011).

In the case of dextran sulfate, for the setting “later study”, the “oral absorption into the blood stream” value is “good oral absorption”. Further, the oral absorption result (oral) is “poorly absorbed orally”.
